Source: patent publication US20150299120A1, “Spirohydantoin compounds and their use as selective androgen receptor modulators” (NOVARTIS AG, priority 2012, published 2015)

Tests used:
androgen receptor (AR) = target: T1, androgen receptor (AR) (Homo sapiens, UniProt P10275); test: Test 1: androgen receptor transcriptional activation (2XIDR17-luciferase) assay in transfected C2C12 cells; format: cell-based; settings: for Emax: C2C12, C2C12 cells, percentage activity relative to 1 μM DHT, read-out: Biological activity (C2C12 cell) Emax % (converted); for EC50: mouse myoblastic C2C12 cells transfected with full-length AR and 2XIDR17-luciferase, read-out: Biological activity (C2C12 cell) EC50; for % Biological activity (C2C12 cell) 100 nM / % Biological activity (C2C12 cell) 5 μM: C2C12 cells, relative to 1 μM DHT; for % Biological activity (C2C12 cell) 100 nM: compound at 100 nM; for % Biological activity (C2C12 cell) 5 μM: compound at 5 μM
T1 construct: transfecting C2C12 cells with a plasmid containing full-length AR; expressed in transfected cells; host or cells: mouse myoblastic C2C12 cells (ATCC CRL-1772), transiently transfected with AR-FL in pcDNA 3.1(+)
T1 sequence (P10275 1-920): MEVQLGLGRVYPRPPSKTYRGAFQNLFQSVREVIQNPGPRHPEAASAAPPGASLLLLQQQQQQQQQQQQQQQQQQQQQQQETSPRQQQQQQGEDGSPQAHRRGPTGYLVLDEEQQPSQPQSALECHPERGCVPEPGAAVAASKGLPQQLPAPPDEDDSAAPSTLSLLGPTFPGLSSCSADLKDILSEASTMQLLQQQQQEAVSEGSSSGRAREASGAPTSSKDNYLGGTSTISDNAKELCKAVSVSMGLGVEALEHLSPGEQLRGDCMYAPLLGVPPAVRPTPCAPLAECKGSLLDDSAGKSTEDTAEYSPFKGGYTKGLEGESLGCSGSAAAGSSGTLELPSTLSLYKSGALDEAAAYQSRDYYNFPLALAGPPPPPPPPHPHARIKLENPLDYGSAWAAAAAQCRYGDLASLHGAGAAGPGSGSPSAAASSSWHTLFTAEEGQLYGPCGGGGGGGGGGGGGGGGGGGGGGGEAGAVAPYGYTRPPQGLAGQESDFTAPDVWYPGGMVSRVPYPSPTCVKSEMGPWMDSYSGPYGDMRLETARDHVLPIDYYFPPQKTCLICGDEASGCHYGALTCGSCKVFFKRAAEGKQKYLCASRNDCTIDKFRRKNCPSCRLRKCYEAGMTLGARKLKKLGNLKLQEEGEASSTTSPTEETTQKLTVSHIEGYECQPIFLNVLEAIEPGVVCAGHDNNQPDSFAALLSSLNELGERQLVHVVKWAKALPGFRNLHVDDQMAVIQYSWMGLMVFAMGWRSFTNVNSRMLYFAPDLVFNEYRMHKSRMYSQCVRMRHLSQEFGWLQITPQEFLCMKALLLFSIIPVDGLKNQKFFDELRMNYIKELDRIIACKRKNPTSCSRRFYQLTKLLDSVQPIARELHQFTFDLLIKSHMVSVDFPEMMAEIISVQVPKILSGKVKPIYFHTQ
Method: A suitable assay to determine the ability of a ligand to transcriptionally activate androgen receptor (AR) is carried out using mouse myoblastic C2C12 cells. The assay involves transfecting C2C12 cells with a plasmid containing full-length AR along with an AR response element linked to luciferase (2XIDR17). The luminescence read-out at the end of the assay is measured using Victor 3 and is a direct measure of the transcriptional activity. The assay has been validated using the reference compound, BMS-564929, for which EC50 values have been reported in a similar set-up.
C2C12 cells were obtained from ATCC (Cat #CRL-1772) and maintained in DMEM modified to contain 4 mM L-glutamine, 4.5 g/L glucose, 1 mM sodium pyruvate and 1.5 g/L sodium bicarbonate and 10% FBS.
AR-FL in pcDNA 3.1(+) and 2XIDR17 in pGL4.26 plasmids prepared using Genelute plasmid miniprep kit from Sigma Cat #PLED35 Steadyglow Luciferase assay system Promega Cat #E2550
• C2C12 cells were seeded in a 96-well plate in DMEM (Dulbecco's Modified Eagle Medium) without phenol red and containing 10% CS-FBS (Charcoal-stripped Fetal Bovine Serum) at 8000 cells/well. • The next day, cells were transfected with an equimolar ratio of (Androgen Receptor-Full length) AR-FL and 2XIDR17-Luciferase at a total plasmid concentration of 200 ng/well using Lipofectamine 2000 following manufacturer's protocol. • For the transfection, 83 ng of AR-FL and 117 ng of 2XIDR17-Luciferase were in 12.5 μl of OptiMEM—Mix A. 0.4 μl of Lipofectamine 2000 was added to 12.5 μl of OptiMEM and incubated for 5 min at room temperature—Mix B. The two mixes A and B were mixed and incubated at room temperature for an additional fifteen minutes. An additional 50 μl of OptiMEM was added, gently mixed and this mixture was added to the cells in the 96-well plate. The above quantities are requirements per well of a 96-well plate. Master mixes were made for the entire plate, with proportional quantity of reagents being used. • 5 h after transfection, compounds were added to the wells in DMEM without phenol red and containing 10% CS-FBS, maintaining a final DMSO concentration of 0.5%. A typical dose response curve starts at 10 μM and includes a 7-point, log dilution, done in triplicates. • After overnight incubation with the compounds, 100 ul of working solution of Steadyglow reagent was added to the wells. • The plates were placed in a shaker for 15 min at the end of which the lysate containing luciferase was transferred to a white flat-bottom plate and read under a luminescence setting in Victor. • Background subtracted counts (Luminescence from DMSO control wells is considered the background) are used to calculate percentage activity, expressed relative to activity with 1 μM (Dihydrotestosterone) DHT (at least two sets of triplicates for 1 μM DHT are included per plate).
The EC50 curves for the compounds for 8 compound concentrations were fitted by the respective function using non-linear least-squares regression in Graphpad Prism 4.0 (Graphpad Software, San Diego, Calif., USA).

Cc1c(N2C(=O)N(C)C3(CCCC3O)C2O)ccc(C#N)c1Cl (mixture of isomers) [Example 1.2, 2-chloro-4-(4,6-dihydroxy-1-methyl-2-oxo-1,3-diazaspiro[4.4]nonan-3-yl)-3-methylbenzonitrile]
melting point: 179 °C
Emax (androgen receptor (AR)): 79%
EC50 (androgen receptor (AR)): 930 nM

CCN1C(=O)N(c2ccc(C#N)c(Cl)c2C)C(=O)C12CCCC2 [Example 3.2, 2-chloro-4-(1-ethyl-2,4-dioxo-1,3-diazaspiro[4.4]nonan-3-yl)-3-methylbenzonitrile]
melting point: 94 °C
Emax (androgen receptor (AR)): 83%
EC50 (androgen receptor (AR)): 23.5 nM

COCCN1C(=O)N(c2ccc(C#N)c(Cl)c2C)C(=O)C12CCCC2 [Example 3.1, 2-chloro-4-(1-(2-methoxyethyl)-2,4-dioxo-1,3-diazaspiro[4.4]nonan-3-yl)-3-methylbenzonitrile]
melting point: 115 °C
Emax (androgen receptor (AR)): 96%
EC50 (androgen receptor (AR)): 105 nM

Cc1c(N2C(=O)N(CC(C)C)C3(CCCC3)C2=O)ccc(C#N)c1Cl [Example 9.5, 2-chloro-4-(1-isobutyl-2,4-dioxo-1,3-diazaspiro[4.4]nonan-3-yl)-3-methylbenzonitrile]
melting point: 115 °C
% Biological activity (C2C12 cell) 100 nM (androgen receptor (AR)): 11%
% Biological activity (C2C12 cell) 5 μM (androgen receptor (AR)): 74%

Cc1c(N2C(=O)N(C)C3(CCC(F)(F)C3)C2=O)ccc(C#N)c1Cl (stereo not drawn) [Example 6.3, 2-chloro-4-(7,7-difluoro-1-methyl-2,4-dioxo-1,3-diazaspiro[4.4]nonan-3-yl)-3-methylbenzonitrile]
melting point: 184 °C
Emax (androgen receptor (AR)): 63%
EC50 (androgen receptor (AR)): 14.9 nM

Cc1c(N2C(=O)N(C)C3(CCCC3CO)C2=O)ccc(C#N)c1Cl (stereo not drawn) [Example 1.6, 2-chloro-4-(6-(hydroxymethyl)-1-methyl-2,4-dioxo-1,3-diazaspiro[4.4]nonan-3-yl)-3-methylbenzonitrile]
melting point: 157 °C
% Biological activity (C2C12 cell) 100 nM (androgen receptor (AR)): 28%
% Biological activity (C2C12 cell) 5 μM (androgen receptor (AR)): 75%

Cc1c(N2C(=N)C3(CCCC3)N(C)C2=O)ccc(C#N)c1Cl [Example 7.0, 2-chloro-4-(4-imino-1-methyl-2-oxo-1,3-diazaspiro[4.4]nonan-3-yl)-3-methylbenzonitrile]
melting point: 199 °C
Emax (androgen receptor (AR)): 53%
EC50 (androgen receptor (AR)): 103 nM

Cc1c(N2C(=O)N(CCOCCF)C3(CCCC3)C2=O)ccc(C#N)c1Cl [Example 9.2, 2-chloro-4-(1-(2-(2-fluoroethoxy)ethyl)-2,4-dioxo-1,3-diazaspiro[4.4]nonan-3-yl)-3-methylbenzonitrile]
melting point: 112 °C
Emax (androgen receptor (AR)): 83%
EC50 (androgen receptor (AR)): 17.8 ± 6.6 nM
